# Experiments:
# MG-63 cells [1] = test: Morphological changes (crystal violet staining), MG-63; format: cell-based, human
# Protocol: FIG. 2. (A) Graphical representation of the effect of CuB on MG-63 and SAOS-2 cells. Cells were exposed to CuB at their ED50 (70 nM for MG-63 and 50 nM for SAOS-2 cells). Time-dependent antiproliferative activity of CuB on MG-63 and SAOS-2 cells measured by pulse-exposure experiments. Cells were exposed to CuB for 2, 9, or 20 hours, washed extensively, and cultured in the absence of CuB for an additional 24, 48, and 72 hours. Cell growth was measured by MTT assay. Measurements were repeated in triplicates. Data represent mean±SD. Asterisks (**) represent p<0.001 vs DMSO control by t-test. (B) Morphological changes of MG-63 and SAOS-2 cells after exposure to cucurbitacin B. Cells with normal morphology (top) were compared to rounded cells (middle) and multinucleated cells (bottom). […] Representative cells are shown. 400×; scale bar=50 μm. (C) Graphical representation of G2/M cell cycle arrest after 20 hours of exposure to cucurbitacin B. Cells were stained with propidium iodide (PI) and analyzed by FACS. (D) Graphical representation of apoptosis after 72 hours of exposure to cucurbitacin B. Cells were stained with PI and Annexin V-FITC, and analyzed by FACS.
# SAOS-2 cells [2] = test: Cell cycle analysis (PI, FACS), SAOS-2; format: cell-based, human
# Protocol: (§1) Cells were harvested and fixed with 70% ethanol at regular time intervals. Fixed cells were stained with propidium iodide (PI) for flow cytometry analysis using BD FACScan (BD Biosciences, San Jose, Calif.). Distribution of cell cycle was analyzed by ModFit LT V2.0 software (Verity Software House, Topsham, Me.). […] After 24, 48, and 72 hours of exposure, cells were harvested and stained with PI and fluorescein isothiocyanate (FITC) using Annexin V-FITC apoptosis detection kit (BD Biosciences) according to the manufacturer's protocol. Cells were subjected to flow cytometry analysis within one hour of staining.
# Organ weight in mice = format: in vivo; settings: day 35
# Description: (§2) At autopsy, tumors and internal organs including liver, spleen, kidneys were excised, weighed, and then fixed in 10% PBS-buffered formalin and maintained in 70% ethanol. For IHC, fixed tumors and organs were embedded in paraplast (Oxford Labware, St. Louis, Mo.), cut in 6 μm thick sections, and stained with hematoxylin and eosin (HE) for histopathological examination.
# Akt = test: Western blotting, Akt phosphorylation; format: cell-based, human; settings: MG-63 cells
# Protocol: Changes in protein level by CuB were checked by Western blotting. […] After 2, 9, and 20 hours of exposure, cells were harvested and immediately lysed with RIPA buffer (Millipore—Upstate, Temecula, Calif.) supplemented with protease inhibitor cocktail (Roche, San Francisco, Calif.), 0.5 mM PMSF (Roche), and 50 mM NaF (Sigma). After 20 minutes of incubation on ice, protein concentrations were measured by Bradford assay with Bio Rad protein assay solution (Bio-Rad, Hercules, Calif.) and samples were adjusted to the same protein concentration. Samples were mixed with 2× Laemmli sample buffer (Bio-Rad) with 5% β-mercaptoethanol (Sigma) and incubated at 95° C. for 10 min to denature the protein. After brief incubation on ice, proteins were separated by SDS-PAGE, transferred to nitrocellulose membrane (Sigma), and blotted with antibodies from either Cell Signaling Technology (Danvers, Mass.) or Santa Cruz Biotechnology (Santa Cruz, Calif.). Target proteins were visualized by Supersignal West Dura Substrate (Thermo-Pierce, Rockford, Ill.). GAPDH protein was used as a loading control.
# MG-63 xenografts = test: Immunohistochemistry of xenografts (HE, Ki-67, TUNEL); format: in vivo, mice; settings: LD-CuB 0.5 mg/kg; day 35
# Description: as §2
# For Ki-67 proliferation assay, tumor sections were deparaffinized with xylene and rehydrated through graded ethanol. Endogenous peroxidase activity was blocked with 3% hydrogen peroxide in methanol. […] After incubation, tumor sections were stained with diaminobenzidine (DAB) and counterstained with hematoxylin. Terminal deoxynucleotidyl transferase dUTP nick end labeling (TUNEL) apoptosis assay was performed using ApopTaq Plus Peroxidase In Situ Apoptosis Kit (Millipore) according to the manufacturer's protocol. Percent positive cells in representative microscopic fields were counted using ImageJ (17).
# MG-63 cells [3] = test: Cell cycle analysis (PI, FACS), MG-63; format: cell-based, human
# Protocol: as §1
# MG-63 cells [4] = test: MTT assay, MG-63 (dose-response, pulse-exposure, combination); format: cell-based, human; settings: pulse-exposed at ED50 for 2, 9, and 20 hours
# Protocol: 7 human OS cell lines (U2OS, G292, MG-63, HT-161, HOS, SAOS-2, and SJSA) were used in the study. Each cell line except HT-161 was obtained from the American Type Culture Collection (ATCC, Rockville, Md.). HT-161 was obtained from Dr. Emil Bogenmann (13). All cell lines were tested and authenticated prior to use according to cell line verification test recommendations by ATCC. OS cell lines were maintained in DMEM medium (Mediatech Inc., Herndon, Va.) supplemented with 10% fetal bovine serum (FBS; Atlanta Biological, Lawrenceville, Ga.) in a humidified incubator at 37° C. supplied with 5% CO2. Only the cells in exponential growth phase were used in the study.
# Cell growth and survival were measured by 3-(4,5-dimethylthiazol-2-yl)-2,5-diphenyltetrazolium bromide (MTT) assay. […] After 48 hours of incubation, 10 μl of 5 mg/ml MTT solution (Sigma-Aldrich, St. Louis, Mo.) was added to each well and incubated further for 2 hours. […] For pulse-exposure experiments, MG-63 and SAOS-2 cells were seeded in 96-well plates and exposed to CuB at their ED50. After 2, 9, and 20 hours of exposure, cells were washed twice with PBS and incubated further in CuB-free media. Cell growth was checked by MTT assay at 24, 48, and 72 hours.
# Calcusyn 2.0 (Biosoft, Ferguson, Mo.) was used for CI analysis.
# MG-63 cells [5] = test: Annexin V-FITC apoptosis assay, MG-63; format: cell-based, human; settings: at ED50, 72 hours of exposure
# Protocol: as §1
# SAOS-2 cells [6] = test: Annexin V-FITC apoptosis assay, SAOS-2; format: cell-based, human; settings: at ED50, 72 hours of exposure
# Protocol: as §1
smiles,measurement,setting,value
"CC(=O)OC(C)(C)/C=C/C(=O)[C@](C)(O)[C@H]1[C@H](O)C[C@@]2(C)[C@@H]3CC=C4[C@H](C[C@H](O)C(=O)C4(C)C)[C@]3(C)C(=O)C[C@]12C [CuB, cucurbitacin B]",morphological changes,MG-63 cells [1]; 2 hour exposure,Rapid loss of pseudopodia and rounding
same,morphological changes,MG-63 cells [1]; 9 hour-exposure,multinuclearity which was not reversed by CuB removal
same,increase of G2/M phase,SAOS-2 cells [2]; 20 hours of exposure,around 3 fold
same,G2/M phase,SAOS-2 cells [2]; 20 hours of exposure at ED50 (control 15%),42%
same,Kidney organ weight,Organ weight in mice; HD-CuB 1.0 mg/kg,370 ± 1 mg
same,Liver organ weight,Organ weight in mice; HD-CuB 1.0 mg/kg,1260 ± 141 mg
same,Spleen organ weight,Organ weight in mice; HD-CuB 1.0 mg/kg,110 ± 1 mg
same,Kidney organ weight,Organ weight in mice; LD-CuB 0.5 mg/kg,360 ± 1 mg
same,Liver organ weight,Organ weight in mice; LD-CuB 0.5 mg/kg,1250 ± 60 mg
same,Spleen organ weight,Organ weight in mice; LD-CuB 0.5 mg/kg,117 ± 6 mg
same,Akt phosphorylation at S473,Akt,Inhibition of Akt phosphorylation at S473 was observed in MG-63 cells
same,HE-stained tumors,MG-63 xenografts,decreased tumor area and smaller blood vessels
same,increase of G2/M phase,MG-63 cells [3]; 20 hours of exposure,around 3 fold
same,G2/M phase,MG-63 cells [3]; 20 hours of exposure at ED50 (control 27%),76%
same,cell death after pulse-exposure,MG-63 cells [4],longer exposure to CuB induced more cell death
same,apoptotic cells,MG-63 cells [5],44%
same,apoptotic cells,SAOS-2 cells [6],96%

# Source: US20120238532A1, “TREATMENT OF HUMAN OSTEOSARCOMA” (CEDARS-SINAI MEDICAL CENTER, priority 2009, published 2012)
